Source: ChEMBL document CHEMBL2095176, “GSK Tuberculosis Screening Data”
In brackets after ≈: the same amount, converted by molar mass.

Test system: Mycobacterium tuberculosis variant bovis BCG
Test: microbe, parasite or virus in culture
Assay type: functional

SMILES	MIC90 [µM]
O=C(NNC(=O)c1ccc([N+](=O)[O-])o1)c1ccc2ccccc2c1	7.2 (≈ 2.34 µg/mL)
O=C(CSc1ccc(Cl)cc1)NNC(=O)c1ccncc1	8.1 (≈ 2.61 µg/mL)
Cc1ccc(C(=O)Nc2nc(-c3ccccn3)cs2)s1	3.7 (≈ 1.12 µg/mL)
O=C(Nc1nc(-c2ccccn2)cs1)c1cccc(-n2cnnn2)c1	8.5 (≈ 2.97 µg/mL)
O=C(NC1=NCCS1)c1sc2cc(F)ccc2c1Cl	8.2 (≈ 2.58 µg/mL)
Cc1ccc(NC(=O)CCC(=O)NNC(=O)c2cccs2)cc1C	8.3 (≈ 2.87 µg/mL)
O=C(COc1ccccc1F)Nc1nc(-c2ccccn2)cs1	8.7 (≈ 2.87 µg/mL)
Cl.O=C(c1ccco1)N(CCCn1ccnc1)c1nc2c(Cl)cccc2s1	7.2
Cc1[nH]n2c(=O)cc(-c3ccccc3Cl)nc2c1-c1ccccc1	8.1 (≈ 2.72 µg/mL)
Cn1c(CNCCc2nc(C(=O)N3Cc4ccccc4C3)cs2)nc2ccccc21	8.1 (≈ 3.38 µg/mL)
CCCCOc1ccc(NC(=O)C2CCCCC2)cc1	8.1 (≈ 2.23 µg/mL)
CCn1c(-c2nonc2N)nc2c(C#Cc3ccccc3)ncc(OCCCCN)c21	8.1 (≈ 3.38 µg/mL)
C=CCc1cc(C(=O)NC2CCC(C(C)(C)C)CC2)ccc1OC (stereo unspecified)	8.1 (≈ 2.67 µg/mL)
COc1ccc(-c2cc(NC(=O)c3ccc(F)cc3Cl)ccc2OC)cc1	8.2 (≈ 3.16 µg/mL)
O=C(CNc1ccccc1Nc1ccccc1)N1CCCC1	8.2 (≈ 2.42 µg/mL)
O=C(CSc1nnc(Nc2ccccc2)s1)NNC(=O)c1cccs1	8.2 (≈ 3.21 µg/mL)
c1ccc(Cc2nn3c(-c4ccccc4)nnc3s2)cc1	8.2 (≈ 2.4 µg/mL)
O=C(/C=C/c1ccccc1)N1CCN(Cc2cccc(OCc3ccccc3)c2)CC1	8.3 (≈ 3.42 µg/mL)
O=C(NNC(=O)c1[nH]nc2ccccc12)c1ccco1	8.3 (≈ 2.24 µg/mL)
O=C(Cn1c(SCc2ccccc2F)nc2ccncc21)Nc1ccc(Br)cc1F	8.3 (≈ 4.06 µg/mL)
CC[C@H]1CN2CC[C@@H]1C[C@H]2[C@H](O)c1cc(-c2cccnc2)nc2ccc(OC)cc12	8.3 (≈ 3.35 µg/mL)
CC(C)c1ccc(-c2cncc(N3CCN(c4ccncc4)CC3)n2)cc1	5.1 (≈ 1.83 µg/mL)
O=C(CCCSc1ccccc1)NNC(=O)c1cccs1	3.6 (≈ 1.15 µg/mL)

SMILES	MIC90 [µM]
O=C(NCCNCc1cc(-c2cncc3ccccc23)cs1)c1ccc(Cl)cc1	8.4 (≈ 3.54 µg/mL)
CN1CC[C@@H](Oc2cc(-c3noc(-c4ccc(Br)s4)n3)ccc2C(F)(F)F)C1	8.4 (≈ 3.98 µg/mL)
CN(C)CCCC(=O)Nc1[nH]nc2cnc(-c3cncc(-c4ccccc4)c3)cc12	8.4 (≈ 3.36 µg/mL)
CCn1c(=O)c(=O)[nH]c2cc(C(=O)Nc3ccccc3Nc3ccc(OC)cc3)ccc21	0.9 (≈ 0.387 µg/mL)
O=C(CCSc1ccc(Cl)cc1)Nc1nc(-c2ccccn2)cs1	3.9 (≈ 1.47 µg/mL)
CN(C)C1CCN(C(=O)c2csc(-c3cccc(Cl)c3Cl)n2)C1 (stereo unspecified)	8.5 (≈ 3.15 µg/mL)
Cc1ccc(NC(=O)C2COc3ccccc3C2)cc1Cl (stereo unspecified)	8.5 (≈ 2.57 µg/mL)
CN(C)CCCSc1nc(N2CCCC2)c2c(c1C#N)CCCC2	8.5 (≈ 2.93 µg/mL)
Fc1ccc(-c2cccc3ccc(N4CCNCC4)nc23)cc1	8.5 (≈ 2.61 µg/mL)
N[C@H]1CC[C@H](NCc2ccc(O)c(C(=O)NCc3ccc(Cl)c(Cl)c3)c2)CC1	8.5 (≈ 3.59 µg/mL)
Fc1ccc(-c2nnc3sc(Cc4ccccc4)nn23)cc1	8.6 (≈ 2.67 µg/mL)
COc1ccc(Nc2nc(CN3CCN(Cc4ccc(C#N)cc4)CC3)cs2)cc1	8.6 (≈ 3.61 µg/mL)
CCc1c(C)nc(-c2cccc(C(F)(F)F)c2)nc1N1CCNCC1	8.6 (≈ 3.01 µg/mL)
O=C(CCC(=O)NNC(=O)c1ccco1)NNC(=O)c1ccco1	8.6 (≈ 2.87 µg/mL)
CN1CCC(COC(=O)c2cn(C)c3ccc(Cl)cc23)CC1	8.7 (≈ 2.79 µg/mL)
CN(Cc1ccccc1)c1ncc(-c2ccc(CNCC3CCCO3)cc2)cn1 (stereo unspecified)	8.7 (≈ 3.38 µg/mL)
CCCn1nc(C(=O)N2CCN(c3ccccc3F)CC2)c2ccccc2c1=O	8.7 (≈ 3.43 µg/mL)
CSc1ccc(C(=O)Nc2nc(-c3ccccn3)cs2)cc1	4.4 (≈ 1.44 µg/mL)
O=C(Nc1ccccc1-c1nc(C2CCC2)cs1)OCC1CCNCC1.O=C(O)C(F)(F)F	6.4
O=C(Nc1ccc(N2CCNCC2)cc1)c1ccn2ncc(-c3cccc(Cl)c3)c2n1	8.5 (≈ 3.68 µg/mL)
c1cncc(NCc2ccc(-c3cc4ccncc4cc3OC3CCNCC3)s2)c1	8.3 (≈ 3.46 µg/mL)
COc1ccc2sc(Nc3nc(-c4ccccn4)cs3)nc2c1	3.5 (≈ 1.19 µg/mL)
Cc1ccc2nc(N(CCCn3ccnc3)C(=O)C=Cc3cccs3)sc2c1	8.2 (≈ 3.35 µg/mL)
